{"source": "patent US10898595B2", "about": "“Core-satellite nanocomposites for MRI and photothermal therapy” (The Regents of the University of Michigan, priority 2013, dated 2021)", "tested_on": "SUM-159 tumors", "assay": "In vivo PTT using IONP-IR820", "design": "species or system mice", "details": "10 minutes", "procedure": "Tumor-bearing nude mice were randomly allocated into three groups (five mice in each group) when the solid SUM-159 tumors had grown to ˜80 mm3. Mice in each group were intravenously injected with IONP-IR820 (20 mg Fe/Kg mouse body weight), the same amount of IR820, the same amount of IONPs. 24 h post injection, tumors were irradiated with a diode laser (λ=885 nm) at a laser power of 0.5 W for 10 minutes. The highest tumor surface temperature was recorded by an infrared camera (FLIR Systems, i7, Boston, Mass.) before and after application of the laser.\nMice were humanely euthanized by CO2 inhalation 24 h following a single I.V. bolus dose of nanoparticles. The harvested tissue was formalin-fixed, embedded in paraffin and sectioned. Unstained slides were dewaxed using xylene and rehydrated using graded alcohol. Rehydrated slides were stained with Hematoxylin and eosin (H&E staining) for visualization of nucleic acids and cytoplasm."}
{"smiles": "CC1(C)C(=CC=C2CCCC(C=CC3=[N+](CCCCS(=O)(=O)[O-])c4ccc5ccccc5c4C3(C)C)=C2Cl)N(CCCCS(=O)(=O)[O-])c2ccc3ccccc3c21.[Na+]", "note": "[IR820]", "values": [{"measurement": "Tumor tissue hemorrhaging right after laser irradiation", "setting": "24 h post IV injection (20 mg Fe/Kg or same amount), 885 nm laser 0.5 W", "result": "does not have any obvious hemorrhaging"}, {"measurement": "Average temperature increase at the tumor site", "setting": "24 h post IV injection, laser 0.5 W, infrared camera", "result": "8.3±0.8", "unit": "°C"}]}
